Experiments:
[1] = target: T1, Keap1 Kelch domain (321-609) / TAMRA-labeled 16mer NRF2 peptide (ETGE motif) (Homo sapiens, UniProt Q14145); experiment: NRF2-Keap1 FP Assay (Keap1 Kelch fluorescence polarization); format: binding; details: 20 nM Keap1 (321-609), 8 nM Tamra labeled peptide
T1 construct: the Kelch domain (321-609) of Keap1 is used
Outline: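 Compound dilutions (3-fold) were incubated 1 hr at room temperature with 20 nM Keap1 Kelch (321-609) and 8 nM TAMRA-labeled ETGE 16mer peptide. Buffer was 50 mM Tris pH 8.0, 100 mM NaCl, 5 mM MgCl2, 1 mM DTT, 2 mM CHAPS, 0.005% BSA. Fluorescence polarization (mP) was normalized to controls and fitted with a four-parameter equation to give pIC50.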

[2] = target: T2, full length Keap1 protein / full length NRF2 protein (Homo sapiens, UniProt Q14145); experiment: NRF2-Keap1 TR-FRET Assay; format: binding; details: 25 nM Keap1-FlagHis and 50 nM biotin-NRF2 added
T2 construct: full length NRF2 protein and full length Keap1 protein (Keap1 exists a dimer) are used; His
T2 sequence (Q14145 whole entry): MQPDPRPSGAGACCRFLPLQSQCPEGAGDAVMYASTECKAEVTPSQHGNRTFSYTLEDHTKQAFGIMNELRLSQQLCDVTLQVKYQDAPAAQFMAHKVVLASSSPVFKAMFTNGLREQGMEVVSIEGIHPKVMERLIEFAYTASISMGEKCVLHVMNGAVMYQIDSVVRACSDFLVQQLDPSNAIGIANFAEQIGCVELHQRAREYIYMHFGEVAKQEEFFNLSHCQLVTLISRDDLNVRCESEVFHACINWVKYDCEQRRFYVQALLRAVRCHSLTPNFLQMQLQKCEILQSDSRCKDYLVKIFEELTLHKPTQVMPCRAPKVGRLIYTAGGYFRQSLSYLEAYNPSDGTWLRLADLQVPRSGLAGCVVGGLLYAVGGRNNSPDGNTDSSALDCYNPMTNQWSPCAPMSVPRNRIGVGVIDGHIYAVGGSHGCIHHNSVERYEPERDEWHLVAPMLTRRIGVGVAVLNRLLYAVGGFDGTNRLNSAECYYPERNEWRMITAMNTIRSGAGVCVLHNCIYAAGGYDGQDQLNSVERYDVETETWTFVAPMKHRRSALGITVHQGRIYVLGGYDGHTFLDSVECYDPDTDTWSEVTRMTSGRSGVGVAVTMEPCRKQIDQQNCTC
Outline: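 Displacement of biotinylated full-length NRF2 from full-length Keap1 read by Eu/APC TR-FRET (665/615 nm) after 1 h detection at RT. Compound, 3-fold series, first incubated with Keap1 at 37 °C for 2.25 h, NRF2 then added at 4 °C for 1.25 h; pIC50 by four-parameter equation.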

T1 sequence (Q14145 321-609): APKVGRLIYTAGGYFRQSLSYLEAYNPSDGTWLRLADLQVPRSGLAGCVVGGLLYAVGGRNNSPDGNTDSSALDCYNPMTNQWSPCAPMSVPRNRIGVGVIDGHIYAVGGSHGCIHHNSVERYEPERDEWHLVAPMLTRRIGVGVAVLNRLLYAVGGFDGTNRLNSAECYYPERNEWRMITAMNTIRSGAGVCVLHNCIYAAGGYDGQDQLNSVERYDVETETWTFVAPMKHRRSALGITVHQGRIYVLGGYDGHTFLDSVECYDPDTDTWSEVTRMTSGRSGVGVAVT

| SMILES | IC50 [1] [µM] | IC50 [2] [µM] |
| --- | --- | --- |
| Cn1cc([C@@H]2C[C@H]2c2c(C(=O)O)cnn2-c2cccc(-c3cccc(OCC4CCSCC4)c3)c2)nn1 (racemic) [Example 149, 5-((1,2-trans)-2-(1-Methyl-1H-1,2,3-triazol-4-yl)cyclopropyl)-1-(3′-((tetrahydro-2H-thiopyran-4-yl)methoxy)-[1,1′-biphenyl]-3-yl)-1H-pyrazole-4-carboxylic acid] | 0.1 to 1 | 0.1 to 1 |
| CCC1CCC(COc2cccc(-c3cccc(-n4ncc(C(=O)O)c4[C@@H]4C[C@H]4c4cn(C)nn4)c3)c2)CC1 (mixture of isomers) [Example 150, 1-(3′-((4-Ethylcyclohexyl)methoxy)-[1,1′-biphenyl]-3-yl)-5-((1,2-trans)-2-(1-methyl-1H-1,2,3-triazol-4-yl)cyclopropyl)-1H-pyrazole-4-carboxylic acid] | 0.1 to 1 | 0.1 to 1 |
| Cn1cc([C@@H]2C[C@H]2c2c(C(=O)O)cnn2-c2cccc(-c3cccc(OC(C4CCCCC4)C(F)(F)F)c3)c2)nn1 (mixture of isomers) [Example 157, 1-(3′-(1-Cyclohexyl-2,2,2-trifluoroethoxy)-[1,1′-biphenyl]-3-yl)-5-((1,2-trans)-2-(1-methyl-1H-1,2,3-triazol-4-yl)cyclopropyl)-1H-pyrazole-4-carboxylic Acid] | 0.1 to 1 | 0.1 to 1 |
| COC1CCCCC1COc1cccc(-c2cccc(-n3ncc(C(=O)O)c3[C@H]3C[C@@H]3c3cn(C)nn3)c2)c1 (mixture of isomers) [Example 177, 1-(3′-((2-Methoxycyclohexyl)methoxy)-[1,1′-biphenyl]-3-yl)-5-((1,2-trans)-2-(1-methyl-1H-1,2,3-triazol-4-yl)cyclopropyl)-1H-pyrazole-4-carboxylic acid] | 0.1 to 1 | 0.1 to 1 |
| Cn1cc([C@H]2C[C@@H]2c2c(C(=O)O)cnn2-c2cccc(-c3cccc(OC[C@H]4CC[C@H](Cl)CC4)c3)c2)nn1 (racemic) [Example 185, 1-(3′-((4-Chlorocyclohexyl)methoxy)-[1,1′-biphenyl]-3-yl)-5-((1,2-trans)-2-(1-methyl-1H-1,2,3-triazol-4-yl)cyclopropyl)-1H-pyrazole-4-carboxylic Acid] | 0.1 to 1 | 0.1 to 1 |
| Cn1cc([C@H]2C[C@@H]2c2c(C(=O)O)cnn2-c2cccc(-c3cccc(OCC4CCCC(Cl)C4)c3)c2)nn1 (mixture of isomers) [Example 187, 1-(3′-((3-chlorocyclohexyl)methoxy)-[1,1′-biphenyl]-3-yl)-5-((1,2-trans)-2-(1-methyl-1H-1,2,3-triazol-4-yl)cyclopropyl)-1H-pyrazole-4-carboxylic acid] | 0.1 to 1 | 0.1 to 1 |
| Cn1cc([C@H]2C[C@@H]2c2c(C(=O)O)cnn2-c2cccc(-c3cccc(OCc4ccc(-c5ccccc5)cc4)c3)c2)nn1 (racemic) [Example 237, 1-(3′-([1,1′-Biphenyl]-4-ylmethoxy)-[1,1′-biphenyl]-3-yl)-5-((1,2-trans)-2-(1-methyl-1H-1,2,3-triazol-4-yl)cyclopropyl)-1H-pyrazole-4-carboxylic Acid] | 0.1 to 1 | 1 to 10 |
| Cn1cc([C@H]2C[C@@H]2c2c(C(=O)O)cnn2-c2cccc(-c3cccc(OCc4cccc(-c5ccccc5)c4)c3)c2)nn1 (racemic) [Example 238, 1-(3′-([1,1′-Biphenyl]-3-ylmethoxy)-[1,1′-biphenyl]-3-yl)-5-((1,2- trans)-2-(1-methyl-1H-1,2,3-triazol-4-yl)cyclopropyl)-1H-pyrazole-4-carboxylic acid] | 0.1 to 1 | 1 to 10 |
| CC(Oc1cccc(-c2cccc(-n3ncc(C(=O)O)c3[C@H]3C[C@@H]3c3cn(C)nn3)c2)c1)c1cccc(-c2ccccc2)c1 (mixture of isomers) [Example 239, 1-(3′-(1-([1,1′-Biphenyl]-3-yl)ethoxy)-[1,1′-biphenyl]-3-yl)-5-((1,2-trans)-2-(1-methyl-1H-1,2,3-triazol-4-yl)cyclopropyl)-1H-pyrazole-4-carboxylic Acid] | 0.1 to 1 | 0.1 to 1 |
| CC(Oc1cccc(-c2cccc(-n3ncc(C(=O)O)c3[C@H]3C[C@@H]3c3cn(C)nn3)c2)c1)c1ccc(-c2ccccc2)cc1 (mixture of isomers) [Example 240, 1-(3′-(1-([1,1′-Biphenyl]-4-yl)ethoxy)-[1,1′-biphenyl]-3-yl)-5-((1,2- trans)-2-(1-methyl-1H-1,2,3-triazol-4-yl)cyclopropyl)-1H-pyrazole-4-carboxylic acid] | 0.1 to 1 | 1 to 10 |

Results, then the compound that gave them:

| IC50 [1] [µM] | IC50 [2] [µM] | SMILES |
| --- | --- | --- |
| 0.01 to 0.1 | 0.1 to 1 | Cn1cc([C@@H]2C[C@H]2c2c(C(=O)O)cnn2-c2cccc(-c3cccc(OCC4CCCSC4)c3)c2)nn1 (mixture of isomers) [Example 144, 5-((1,2-trans)-2-(1-Methyl-1H-1,2,3-triazol-4-yl)cyclopropyl)-1-(3′-((tetrahydro-2H-thiopyran-3-yl)methoxy)-[1,1′-biphenyl]-3-yl)-1H-pyrazole-4-carboxylic Acid] |
| 0.01 to 0.1 | 0.1 to 1 | Cn1cc([C@@H]2C[C@H]2c2c(C(=O)O)cnn2-c2cccc(-c3cccc(OCC4CCC(F)(F)CC4)c3)c2)nn1 (racemic) [Example 145, 1-(3′-((4,4-Difluorocyclohexyl)methoxy)-[1,1′-biphenyl]-3-yl)-5-((1,2-trans)-2-(1-methyl-1H-1,2,3-triazol-4-yl)cyclopropyl)-1H-pyrazole-4-carboxylic acid] |
| 0.01 to 0.1 | 0.1 to 1 | Cn1cc([C@@H]2C[C@H]2c2c(C(=O)O)cnn2-c2cccc(-c3cccc(OC[C@H]4CC[C@H](C(F)(F)F)CC4)c3)c2)nn1 (racemic) [Example 146, 5-((1,2-trans)-2-(1-Methyl-1H-1,2,3-triazol-4-yl)cyclopropyl)-1-(3′-(((1r,4R)-4-(trifluoromethyl)cyclohexyl)methoxy)-[1,1′-biphenyl]-3-yl)-1H-pyrazole-4-carboxylic acid] |
| 0.1 to 1 | 0.1 to 1 | Cn1cc([C@@H]2C[C@H]2c2c(C(=O)O)cnn2-c2cccc(-c3cccc(OCC4CCCC(C(F)(F)F)C4)c3)c2)nn1 (mixture of isomers) [Example 147, 5-((1,2-trans)-2-(1-Methyl-1H-1,2,3-triazol-4-yl)cyclopropyl)-1-(3′-((3-(trifluoromethyl)cyclohexyl)methoxy)-[1,1′-biphenyl]-3-yl)-1H-pyrazole-4-carboxylic acid] |
| 0.01 to 0.1 | 0.1 to 1 | Cn1cc([C@@H]2C[C@H]2c2c(C(=O)O)cnn2-c2cccc(-c3cccc(OCC4CCCCC4C(F)(F)F)c3)c2)nn1 (mixture of isomers) [Example 148, 5-((1,2-trans)-2-(1-Methyl-1H-1,2,3-triazol-4-yl)cyclopropyl)-1-(3′-((2-(trifluoromethyl)cyclohexyl)methoxy)-[1,1′-biphenyl]-3-yl)-1H-pyrazole-4-carboxylic acid] |
| 0.01 to 0.1 | 0.1 to 1 | Cn1cc([C@@H]2C[C@H]2c2c(C(=O)O)cnn2-c2cccc(-c3cccc(OCC4CCCCC4)c3F)c2)nn1 (racemic) [Example 152, 1-(3′-(Cyclohexylmethoxy)-2′-fluoro-[1,1′-biphenyl]-3-yl)-5-((1,2-trans)-2-(1-methyl-1H-1,2,3-triazol-4-yl)cyclopropyl)-1H-pyrazole-4-carboxylic Acid] |
| 0.01 to 0.1 | 0.1 to 1 | CO[C@H]1CC[C@H](COc2cccc(-c3cccc(-n4ncc(C(=O)O)c4[C@H]4C[C@@H]4c4cn(C)nn4)c3)c2)CC1 (racemic) [Example 176, 1-(3′-(((1R,4S)-4-Methoxycyclohexyl)methoxy)-[1,1′-biphenyl]-3-yl)-5-((1,2-trans)-2-(1-methyl-1H-1,2,3-triazol-4-yl)cyclopropyl)-1H-pyrazole-4-carboxylic acid] |
| 0.01 to 0.1 | 0.1 to 1 | COC1CCCC(COc2cccc(-c3cccc(-n4ncc(C(=O)O)c4[C@H]4C[C@@H]4c4cn(C)nn4)c3)c2)C1 (mixture of isomers) [Example 178, 1-(3′-((3-Methoxycyclohexyl)methoxy)-[1,1′-biphenyl]-3-yl)-5-((1,2-trans)-2-(1-methyl-1H-1,2,3-triazol-4-yl)cyclopropyl)-1H-pyrazole-4-carboxylic acid] |
| 0.01 to 0.1 | 0.1 to 1 | CCn1cc([C@H]2C[C@@H]2c2c(C(=O)O)cnn2-c2cccc(-c3cccc(OC(C)C4CCCCC4)c3)c2)nn1 (mixture of isomers) [Example 192, 1-(3′-(1-cyclohexylethoxy)-[1,1′-biphenyl]-3-yl)-5-((1,2-trans)-2-(1-ethyl-1H-1,2,3-triazol-4-yl)cyclopropyl)-1H-pyrazole-4-carboxylic acid] |
| 0.01 to 0.1 | 0.01 to 0.1 | CCC[C@@H]1CCCCN1C(=O)c1cccc(-c2cccc(-n3ncc(C(=O)O)c3[C@H]3C[C@@H]3c3cn(CC)nn3)c2)c1 (racemic) [Example 201, 5-((1,2-trans)-2-(1-Ethyl-1H-1,2,3-triazol-4-yl)cyclopropyl)-1-(3′-((R)-2-propylpiperidine-1-carbonyl)-[1,1′-biphenyl]-3-yl)-1H-pyrazole-4-carboxylic acid] |
| 0.01 to 0.1 | 0.01 to 0.1 | CC(Oc1cccc(-c2cccc(-n3ncc(C(=O)O)c3[C@H]3C[C@@H]3c3cn(C)nn3)c2)c1)C1CCCCCC1 (mixture of isomers) [Example 230, 1-(3′-(1-Cycloheptylethoxy)-[1,1′-biphenyl]-3-yl)-5-((1,2-trans)-2-(1-methyl-1H-1,2,3-triazol-4-yl)cyclopropyl)-1H-pyrazole-4-carboxylic acid] |

— patent publication US10364256B2 (GlaxoSmithKline Intellectual Property Development Limited, priority 2015, dated 2019)
